Test results taken from patent publication US20240074473A1, “METHOD FOR INDUCING HYPERTROPHIC MUSCLE FIBERS FOR INDUSTRIAL MEAT PRODUCTION” (Yeda Research and Development Co. Ltd., priority 2021, published 2024).

What was measured:
[1] = system: primary mouse myoblasts; test: qRT-PCR gene expression in primary mouse myoblasts; type: cell-based
Description: (§1) Quantitative real-time PCR (qRT-PCR). Total RNA was isolated using Tri-Reagent (SIGMA) according to the manufacturer's instructions. cDNA was synthesized with the High Capacity cDNA Reverse Transcription Kit (Applied Biosystems according to the manufacturer's instructions. qRT-PCR was performed with SYBR green PCR Master Mix (Applied Biosystems) using the StepOnePlus Real-time PCR system (Applied Biosystems). Values for specific genes were normalize to either Gapdh or Hprt housekeeping control as indicated in Figure legend. Expression was calculated using the ddCT method.
First passage primary mouse derived myoblast were seeded in proliferation media, in equal number in 12-well tissue culture plates that were precoated with 10% Matrigel solution. Following 24 hours to allow for complete attachment, culture media was washed and replaced either with fresh proliferation media (PM), PM supplemented with 1 uM SCH 772984 (ERKi) or differentiation media (DM). After 24 hrs, cells were lysed and RNA was collected. Gene expression analysis was carried out using SYBR green qRT-PCR analysis.

[2] = system: bovine myoblasts; test: Immunofluorescence intensity of sarcomeric proteins in bovine myotubes; type: cell-based; details: 96 hours post-treatment
Description: Shown is immunofluorescence staining of the sarcomeric components of myosin heavy chain (MyHC), alpha-actinin, and Tropoinin T at 96 hours post treatment either with proliferation media (PM), differentiation media (DM), or with 1 uM SCH 772984 (ERKi).

[3] = system: ERK1/2 and RXR; test: Co-immunoprecipitation of ERK1/2 and RXR in myoblasts; type: cell-based, mouse; details: 1 uM, 4 hours, nuclear lysates
Description: Co-immunoprecipitation (Co-IP). Primary myoblasts derived from gastrocnemius muscle were pooled from 10 mice and plated on 15 cm dishes and allowed to adhere for 24 hours. The following day, Bio-Amf2 media was replaced supplemented either with DMSO or 1 uM SCH772984. […] 1 mg of protein was used to immunoprecipitate ERK1/2 using 2 ug of ERK1/2Antibody (Sigma M7927). Rabbit IgG was used as a control. […] 1% of original volume of lysate loaded into IP reaction was loaded into the gel as input control. Membranes were blotted with RXR antibody (SCBT sc-553).

[4] = system: primary mouse myoblasts; test: Fusion index of primary mouse myoblasts (MyHC immunostaining); type: cell-based; details: first passage mouse primary myoblasts, 24 hours; 1 μM ERKi in growth medium vs. DM
Description: Isolation of and treatment of primary myoblasts. Primary mouse myoblasts were isolated from gastrocnemius muscle using trypsin-tissue dissociation. Briefly, muscle tissues were incubated in Trypsin B (0.25%, Biological Industries) and subjected to mechanical dissociation with a serological pipet. Supernatants were strained and centrifuged. Pellets were grown resuspended in BioAmf-2 media (Biological Industries, Israel) and plated on 10% Matrigel (BD Biosciences)-coated plates at 37° and 5% CO2. For all in vitro experiments, proliferation medium was Bio-Amf2 (Biological Industries, Israel) and Differentiation medium (DM) was DMEM 2% Horse Serum (HS) with 1% Pen/Strep. For fusion assays, cells were trypsinized with Trypsin C (0.05%, Biological Industries) and subjected to two rounds of preplating on uncoated plates to reduce the number of fibroblasts. Cells were plated at a density of 8×10^3 per well in 10% Matrigel-coated 96-well plates in proliferation medium for 24 hours. The following day, proliferation media was replaced either with proliferation media or with DM containing DMSO (Ctrl) or 1 μM ERK1/2 inhibitor (ERKi; SCH772984, Cayman Chemicals), […] RXR antagonist (RXRi; HX-531, Cayman Chemicals), […] Ryanodine receptor antagonist (RYRi; Dantrolene, Cayman Chemicals), 5 μM CaMKII inhibitor (CaMKIIi; KN93, Cayman Chemicals), or with DM for controls.
Immunofluorescence staining. First passage primary myoblasts isolated from various strains (indicated in figure legends) were plated in 96-well plates or chamber slides and treated as previously described. The cells were fixed with ice cold 4% PFA in PBS for 10 minutes, permeabilized with 0.5% Triton X-100 in PBS for 6 minutes, and blocked in PBS with 0.025% tween, 10% normal horse serum and 10% normal goat serum for 1 hour at room temperature. Primary antibody incubation was done in blocking buffer overnight at 4 degrees, with the following antibodies: Myosin Heavy Chain (MyHC, MF20, DSHB hybridoma supernatant 1:10, or MY-32 ABCAM ab51263 1:400), Myogenin (MYOG sc-13137 SCBT 1:200), pHistone 3 (PH3, ab47297 ABCAM 1:1000), Ki-67 (Cell Marque #275R), RYR (ab2868 ABCAM 1:100), and pCaMKII (SIGMA SAB4504356 1:100). Cells were washed 3 times in PBS with 0.025% tween and then incubated with appropriate secondary antibodies in PBS 1 hour. Where indicated, nuclei were either labeled with DAPI (SIGMA D9542, 5 ug/ml) or Hoechst 33342 (Thermo scientific #62249, 1:2000). Fixed cells at 24 hours post treatment with indicated inhibitors were imaged using the Nikon Eclipse Ti2 microscope (further described in microscopy section). All analysis was performed on at least 1000 nuclei. […]
Quantification of fusion index. Following immunostaining and imaging, a fusion index was quantified by manually identifying nuclei found in a MyHC positive cell with at least 2 nuclei. Then the values were expressed as a percentage of the total nuclei per field. Briefly, in Figures where fusion index is stratified into subgroups of fiber size, the nuclei number in MyHC positive cell was manually quantified in a given field and stratified into groups of mononucleated, bi-nucleated myotubes, myotubes with 3-10 nuclei and myotubes with greater than 10 nuclei. […] Fields were analyzed hourly, and nuclei per cell was quantified and stratified into mononucleated, bi-nucleated, tri-nucleated and cells with ≥4 nuclei.

[5] = system: chicken myoblasts; test: qRT-PCR gene expression in chicken myoblasts; type: cell-based
Description: as §1
Chicken primary derived myoblasts were used as a model to evaluate the efficiency of SCH772984 as the ERKi, compared to conventional differentiation medium (DM) for the purpose of producing muscle (meat) in tissue culture conditions. Chicken myoblasts were isolated from chicken embryos and expanded in proliferation medium. When sufficient cell numbers were acquired, cells were seeded on tissue culture plates and allowed to adhere for 24 hours. Then medium was changed to either PM supplemented with ERKi or DM. At 24-hours post treatment, the cells that received ERKi were replenished with fresh PM (without the addition of more ERKi), and DM treated cells were replenished with fresh DM. Media was replaced daily over a period of 72 hours.

Structure (SMILES): O=C(Nc1ccc2[nH]nc(-c3ccncc3)c2c1)[C@@H]1CCN(CC(=O)N2CCN(c3ccc(-c4ncccn4)cc3)CC2)C1 [SCH772984]
- Expression of Ryr1, Ryr3, SERCA1/2, Orai and STIM ([1]; ERKi 24 hrs vs Ctrl): upregulated
- Expression of differentiation and fusion factors MyoD, MyoG, Mymk, Mymx ([1]; ERKi in growth medium, time course): upregulated
- Expression of maturation markers myosin heavy chain and troponin compared to DM ([1]; mouse myoblasts, 1 uM ERKi in PM, 24 hrs): stronger expression
- Maturation markers (sarcomeric proteins MyHC, actinin, troponin signal intensity) compared to DM [2]: increased
- RXR immunoprecipitated with ERK1/2 (interaction) [3]: attenuated
- Fusion index (fraction of nuclei in differentiated MyHC+ cells) [4]: 90.5%
- Gene expression of maturation/differentiation markers mrf4, myh1, myh2, tnnt3 compared with DM [5]: elevated gene expression
- Downregulation of Myf5 expression compared to DM ([5]; 72 hour timecourse): stronger across all time points
- Pax7 RNA expression ([5]; 72 hour timecourse): reduction
